Laboratory results published in patent publication US6875578B2, “System for cell-based screening” (priority 1997, dated 2005).
“Also recorded” adds a separate entry of the source.

Tests used:
L-929 cells = experiment: High-content screen of paclitaxel-induced apoptosis, L-929 cells; format: cell-based, mouse
Protocol: The cells chosen for this study were mouse connective tissue fibroblasts (L-929; ATCC CCL-1) and a highly invasive glioblastoma cell line (SNB-19; ATCC CRL-2219) (Welch et al., In Vitro Cell. Dev. Bid. 31:610, 1995). The day before treatment with an apoptosis inducing drug, 3500 cells were placed into each well of a 96-well plate and incubated overnight at 37° C. in a humidified 5% CO2 atmosphere. The following day, the culture medium was removed from each well and replaced with fresh medium containing various concentrations of paclitaxel (0-50 μM) from a 20 mM stock made in DMSO. The maximal concentration of DMSO used in these experiments was 0.25%. The cells were then incubated for 26 h as above. At the end of the paclitaxel treatment period, each well received fresh medium containing 750 nM MITOTRACKER™ Red (Molecular Probes; Eugene, Oreg.) and 3 μg/ml Hoechst 33342 DNA-binding dye (Molecular Probes) and was incubated as above for 20 mm. Each well on the plate was then washed with HBSS and fixed with 3.7% formaldehyde in HBSS for 15 mm at room temperature. The formaldehyde was washed out with HBSS and the cells were permeabilized for 90 s with 0.5% (v/v) Triton X-100, washed with HBSS, incubated with 2 U ml^−1 BODIPY™ FL phallacidin (Molecular Probes) for 30 mm, and washed with HBSS. The wells on the plate were then filled with 200 μl HBSS, sealed, and the plate stored at 4° C. if necessary. The fluorescence signals from plates stored this way were stable for at least two weeks after preparation. As in the nuclear translocation assay, fluorescence reagents can be designed to convert this assay into a live cell high-content screen.
The fluorescence intensity of intracellular MITOTRACKER™ Red, Hoechst 33342, and BODIPY™ FL phallacidin was measured with the cell screening system as described supra. Morphometric data from each pair of images obtained from each well was also obtained to detect each object in the image field (e.g., cells and nuclei), and to calculate its size, shape, and integrated intensity.
A total of 50-250 cells were measured per image field. For each field of cells, the following calculations were performed: (1) The average nuclear area (μm^2) was calculated by dividing the total nuclear area in a field by the number of nuclei detected. (2) The average nuclear perimeter (μm) was calculated by dividing the sum of the perimeters of all nuclei in a field by the number of nuclei detected in that field. Highly convoluted apoptotic nuclei had the largest nuclear perimeter values. (3) The average nuclear brightness was calculated by dividing the integrated intensity of the entire field of nuclei by the number of nuclei in that field. An increase in nuclear brightness was correlated with increased DNA content. (4) The average cellular brightness was calculated by dividing the integrated intensity of an entire field of cells stained with MITOTRACKER™ dye by the number of nuclei in that field. Because the amount of MITOTRACKER™ dye that accumulates within the mitochondria is proportional to the mitochondrial potential, an increase in the average cell brightness is consistent with an increase in mitochondrial potential. (5) The average cellular brightness was also calculated by dividing the integrated intensity of an entire field of cells stained with BODIPY™ FL phallacidin dye by the number of nuclei in that field. […]

MCF-7 cells = experiment: Apoptosis mitochondrial mass/potential, MCF-7 cells; format: cell-based; settings: 30 hours
Protocol: Cells were plated into 96-well plates at densities of 3×10^3 to 1×10^4 cells/well. The following day apoptotic inducers were added at the indicated concentrations and cells were incubated for the indicated time periods (usually 16-30 hours). Cells were stained with 5 μg/ml Hoechst (Molecular Probes, Inc.) and 750 nM MITOTRACKER™ Red (CMXRos, Molecular Probes, Inc.) in fresh medium and incubated for 30 minutes at 37° C. Cells were washed in HBSS and fixed with 3.7% formaldehyde in HBSS at room temperature. Plates were washed with HBSS and permeabilized with 0.5% v/v TRITON™ X-100 in HBSS at room temperature. Cells were washed 2× with HBSS at room temperature and the plate was sealed. For dual labeling of mitochondria, cells were treated with 200 nM MITOTRACKER™ Green and 200 nM MITOTRACKER™ Red for 0.5 hours before fixation.
The mitochondrial membrane potential is measured by labeling mitochondria with both MITOTRACKER™ Green FM and MITOTRACKER™ Red (Molecular Probes, mc). MITOTRACKER™ Red labeling is proportional to both mass and membrane potential. MITOTRACKER™ Green FM labeling is proportional to mass. The ratio of MITOTRACKER™ Red signal to the MITOTRACKER™ Green FM signal provides a measure of mitochondrial membrane potential (Poot and Pierce, 1999). This ratio normalizes the […]. […]

BHK cells = experiment: Apoptosis nuclear morphology, BHK cells; format: cell-based; settings: 30 hours
Protocol: (§1) Cells were plated into 96-well plates at densities of 3×10^3 to 1×10^4 cells/well. The following day apoptotic inducers were added at indicated concentrations and cells were incubated for indicated time periods (usually 16-30 hours). The next day medium was removed and cells were stained with 5 μg/ml Hoechst (Molecular Probes, Inc.) in fresh medium and incubated for 30 minutes at 37° C. Cells were washed in Hank's Balanced Salt Solution (HBSS) and fixed with 3.7% formaldehyde in HBSS at room temperature. Cells were washed 2×with HBSS at room temperature and the plate was sealed.
(§2) Quantitation of changes in nuclear morphology upon induction of apoptosis was accomplished by (1) measuring the effective size of the nuclear region; and (2) measuring the degree of convolution of the perimeter.

L929 cells = experiment: Apoptosis nuclear morphology, L929 cells; format: cell-based, mouse; settings: 30 hours
Protocol: as §1, §2

Structure (SMILES): CC(=O)O[C@H]1C(=O)[C@@]2(C)[C@H]([C@H](OC(=O)c3ccccc3)[C@]3(O)C[C@H](OC(=O)[C@H](O)[C@@H](NC(=O)c4ccccc4)c4ccccc4)C(C)=C1C3(C)C)[C@]1(OC(C)=O)CO[C@@H]1C[C@@H]2O [paclitaxel]
- sensitivity, each parameter measured (L-929 cells; L-929 cells compared with SNB-19 cells): less sensitive to low concentrations of paclitaxel than were SNB-19 cells
- concentration of maximal response in many parameters (L-929 cells; L-929 cells, 26 h): 5 µM
- mitochondrial potential (L-929 cells; L-929 cells, any of the concentrations tested (0-50 μM), 26 h): did not show a sharp decrease in mitochondrial potential
- nuclear morphology (L-929 cells; L-929 cells, increasing amounts, 26 h): caused nuclei to enlarge and fragment
- dose of maximal response relative to SNB-19 cells (L-929 cells; L-929 vs SNB-19 cells): 500 fold
- mitochondrial changes (mass / membrane potential) (MCF-7 cells): consistent increases in mitochondrial mass; also recorded: an increase in mitochondrial mass
- change in nuclear morphology (BHK cells): consistent increase in nuclear fragmentation with increasing concentrations; also recorded: a more classical response
- change in nuclear morphology (L929 cells): dose-dependent change in nuclear morphology; also recorded: classic nuclear fragmentation
